Laboratory results published in ChEMBL document CHEMBL1201862, “PubChem BioAssay data set” (2004).
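Results reflect a 48-hour exposure of cells in 96-well plates to compound at five concentrations. GI50 marks 50% less growth.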 Activity calls are given as the source filed them. No stated cut-off is given here; in the data, active = GI50 up to about 1.1 µM and inactive = higher.

What was measured:
Assay in all cases: NCI-60 cell line screen, 48 h
A549 = test system: A549
ACHN = test system: ACHN
CCRF-CEM = test system: CCRF-CEM
EKVX = test system: EKVX
HCC 2998 = test system: HCC 2998
HOP-92 = test system: HOP-92
HT-29 = test system: HT-29
KM12 = test system: KM12
MDA-N = test system: MDA-N
NCI-H522 = test system: NCI-H522
OVCAR-3 = test system: OVCAR-3
OVCAR-4 = test system: OVCAR-4
PC-3 = test system: PC-3
SK-MEL-2 = test system: SK-MEL-2
SK-MEL-5 = test system: SK-MEL-5
SK-OV-3 = test system: SK-OV-3
SN12C = test system: SN12C
SNB-19 = test system: SNB-19
SR = test system: SR

Measured: GI50

CN(C)Cc1cc(O)c(O)c(CN(C)C)c1
inactive: A549 46.6 µM | ACHN 34.5 µM | CCRF-CEM 20.2 µM | EKVX 16.4 µM | HCC 2998 29 µM | HOP-92 > 100 µM | HT-29 40.2 µM | KM12 94.2 µM | MDA-N 57.8 µM | NCI-H522 30.3 µM | OVCAR-3 36.7 µM | OVCAR-4 42.5 µM | PC-3 48.8 µM | SK-MEL-2 37.2 µM | SK-MEL-5 29.4 µM | SK-OV-3 54.1 µM | SN12C 36.9 µM | SNB-19 50.9 µM

COc1c2c(c3c(c1CCC(=O)O)OC(C)(C)C=C3)OC(C)(C)C=C2
inactive: A549 54.5 µM | ACHN > 100 µM | EKVX 74.3 µM | HCC 2998 > 100 µM | HT-29 > 100 µM | KM12 > 100 µM | MDA-N 31.4 µM | NCI-H522 55.1 µM | OVCAR-3 58.7 µM | OVCAR-4 > 100 µM | PC-3 > 100 µM | SK-MEL-2 > 100 µM | SK-MEL-5 65.2 µM | SK-OV-3 > 100 µM | SN12C > 100 µM | SNB-19 > 100 µM | SR > 100 µM

O=C(Nc1sccc1S(=O)(=O)c1ccccc1)c1ccccc1
inactive: A549 > 100 µM | ACHN > 100 µM | EKVX > 100 µM | HCC 2998 > 100 µM | HOP-92 > 100 µM | HT-29 > 31.6 µM | KM12 > 100 µM | MDA-N 3.73 µM | NCI-H522 > 100 µM | OVCAR-3 99.5 µM | OVCAR-4 > 57.9 µM | PC-3 > 100 µM | SK-MEL-2 > 100 µM | SK-MEL-5 > 79.3 µM | SK-OV-3 > 100 µM | SN12C > 100 µM | SNB-19 > 100 µM

CCOC(=O)C1=CC(C)(C(=O)OCC)Nc2c(nc(OC)n(C)c2=O)N1 (configuration not stated)
inactive: A549 > 10 µM | ACHN > 10 µM | CCRF-CEM > 10 µM | EKVX > 10 µM | HCC 2998 > 10 µM | HOP-92 > 10 µM | HT-29 > 10 µM | KM12 > 10 µM | MDA-N > 10 µM | NCI-H522 > 10 µM | OVCAR-3 > 10 µM | OVCAR-4 > 10 µM | PC-3 > 10 µM | SK-MEL-2 > 10 µM | SK-MEL-5 > 10 µM | SK-OV-3 > 10 µM | SN12C > 10 µM | SNB-19 > 10 µM

CNC1NC(=O)c2ccccc2N1Cc1ccc(F)cc1 (configuration not stated)
inactive: A549 > 100 µM | ACHN > 100 µM | CCRF-CEM > 100 µM | EKVX > 100 µM | HCC 2998 > 100 µM | HOP-92 > 100 µM | HT-29 > 100 µM | KM12 > 100 µM | MDA-N > 100 µM | NCI-H522 > 100 µM | OVCAR-3 > 100 µM | OVCAR-4 > 100 µM | PC-3 > 100 µM | SK-MEL-2 > 100 µM | SK-MEL-5 > 100 µM | SK-OV-3 > 100 µM | SN12C > 100 µM | SNB-19 > 100 µM

COc1ccc(-c2nc(Nc3ccccc3)sc2Cc2sc(Nc3ccccc3)nc2-c2ccc(OC)cc2)cc1
inactive: A549 > 100 µM | ACHN 45.1 µM | CCRF-CEM 36.5 µM | EKVX > 100 µM | HCC 2998 > 100 µM | HT-29 70.6 µM | KM12 8.59 µM | MDA-N 46.1 µM | OVCAR-3 17.1 µM | OVCAR-4 24.3 µM | SK-MEL-5 > 100 µM | SK-OV-3 > 100 µM | SN12C 27 µM | SNB-19 > 100 µM | SR 26 µM

O=c1nc2n(cc1/C=C\Br)C1CC(O)C(CO2)O1 (configuration not stated)
inactive: A549 > 100 µM | ACHN > 100 µM | CCRF-CEM 36.7 µM | EKVX > 100 µM | HCC 2998 > 100 µM | HT-29 > 100 µM | KM12 > 100 µM | MDA-N > 100 µM | OVCAR-3 > 100 µM | OVCAR-4 > 100 µM | SK-MEL-5 > 100 µM | SK-OV-3 > 100 µM | SN12C > 100 µM | SNB-19 > 100 µM

Nc1ccccc1CCN1CCN(CCCc2ccccc2)CC1
inactive: A549 70.8 µM | ACHN > 100 µM | CCRF-CEM 46.1 µM | EKVX > 100 µM | HCC 2998 19.4 µM | HT-29 21.4 µM | KM12 52.1 µM | MDA-N 53 µM | NCI-H522 39.2 µM | OVCAR-3 > 100 µM | OVCAR-4 65.8 µM | PC-3 95.9 µM | SK-MEL-2 > 100 µM | SK-MEL-5 17.9 µM | SK-OV-3 > 100 µM | SN12C 87.7 µM | SNB-19 > 100 µM | SR 25.7 µM

COC(=O)[C@@H]1[C@H]2CC[C@]3(C)[C@@H](OC(C)=O)CC[C@H]3[C@@H]2CC[C@H]1C(C)=O
inactive: A549 > 100 µM | ACHN > 100 µM | CCRF-CEM > 100 µM | EKVX > 100 µM | HCC 2998 > 100 µM | HOP-92 > 100 µM | HT-29 > 100 µM | KM12 > 100 µM | MDA-N > 100 µM | NCI-H522 > 100 µM | OVCAR-3 > 100 µM | PC-3 > 100 µM | SK-MEL-2 > 100 µM | SK-MEL-5 > 100 µM | SK-OV-3 > 100 µM | SN12C > 100 µM | SNB-19 > 100 µM

CC1=C(C(=O)NC(C)(C)C)CC(C(=O)NC(C)(C)C)C(C)N1 (configuration not stated)
inactive: A549 > 100 µM | ACHN > 100 µM | CCRF-CEM 61 µM | EKVX > 100 µM | HCC 2998 > 100 µM | HOP-92 71.1 µM | HT-29 > 100 µM | KM12 > 100 µM | MDA-N > 100 µM | NCI-H522 > 100 µM | OVCAR-3 > 100 µM | OVCAR-4 > 100 µM | PC-3 > 100 µM | SK-MEL-2 > 100 µM | SK-MEL-5 > 100 µM | SK-OV-3 > 100 µM | SN12C > 100 µM | SNB-19 85.1 µM

CCCCCCCCCCCCCCCCOCC(CC(F)(F)P(=O)(OCC)OCC)OC(C)=O (configuration not stated)
inactive: A549 12 µM | ACHN 13.9 µM | EKVX 21.7 µM | HCC 2998 8.69 µM | HOP-92 10.3 µM | HT-29 14.9 µM | KM12 11.6 µM | MDA-N 16.9 µM | NCI-H522 13.1 µM | OVCAR-3 17.5 µM | OVCAR-4 14.9 µM | PC-3 13.8 µM | SK-MEL-2 19.6 µM | SK-MEL-5 21.1 µM | SK-OV-3 19.6 µM | SN12C 19.7 µM | SNB-19 3.21 µM

O=C(NC(CO)CO)c1ccc2cc(C(=O)N3CC(CCl)c4ccc([N+](=O)[O-])cc43)[nH]c2c1 (configuration not stated)
inactive: A549 > 100 µM | ACHN > 100 µM | CCRF-CEM > 100 µM | EKVX > 100 µM | HCC 2998 > 100 µM | HOP-92 > 100 µM | HT-29 > 100 µM | KM12 > 100 µM | MDA-N > 100 µM | OVCAR-3 > 100 µM | OVCAR-4 > 100 µM | PC-3 > 100 µM | SK-MEL-2 > 100 µM | SK-MEL-5 > 100 µM | SK-OV-3 > 100 µM | SN12C > 100 µM | SNB-19 > 100 µM

COc1ccc(OC)c2c1C1CCC(=O)N1CN2C(C)=O (configuration not stated)
inactive: A549 > 100 µM | ACHN > 100 µM | CCRF-CEM > 100 µM | EKVX > 100 µM | HCC 2998 > 100 µM | HOP-92 > 100 µM | HT-29 > 100 µM | KM12 > 100 µM | MDA-N > 100 µM | NCI-H522 > 100 µM | OVCAR-3 > 100 µM | OVCAR-4 > 100 µM | PC-3 > 100 µM | SK-MEL-2 > 100 µM | SK-MEL-5 > 100 µM | SK-OV-3 > 100 µM | SN12C > 100 µM | SNB-19 > 100 µM

[O-][S+](Nc1ccccc1)c1ccccc1Oc1ccccc1 (configuration not stated)
inactive: A549 27 µM | ACHN 46 µM | CCRF-CEM 32.5 µM | EKVX 26 µM | HCC 2998 24.3 µM | HT-29 60.5 µM | KM12 18.8 µM | MDA-N 57.1 µM | NCI-H522 25 µM | OVCAR-3 92.9 µM | PC-3 39.2 µM | SK-MEL-5 30.5 µM | SN12C 86.7 µM | SNB-19 38.9 µM | SR 7.41 µM

CN(C)c1ccc(/C=N/NC(=S)Nc2ccccc2)cc1
inactive: A549 > 100 µM | ACHN > 100 µM | CCRF-CEM > 100 µM | EKVX > 100 µM | HOP-92 > 100 µM | HT-29 > 100 µM | KM12 > 100 µM | NCI-H522 > 100 µM | OVCAR-3 > 100 µM | OVCAR-4 > 100 µM | PC-3 > 100 µM | SK-MEL-2 > 100 µM | SK-MEL-5 > 100 µM | SK-OV-3 > 100 µM | SN12C > 100 µM | SNB-19 > 100 µM | SR > 100 µM

c1ccc2c(c1)Sc1ccccc1N2CC1CN2CCC1CC2 (configuration not stated) [MEQUITAZINE]
inactive: A549 9.71 µM | ACHN 10.3 µM | CCRF-CEM 3.28 µM | EKVX 11.4 µM | HCC 2998 1.29 µM | HOP-92 11 µM | HT-29 3.01 µM | KM12 5.08 µM | NCI-H522 4.82 µM | OVCAR-3 3.97 µM | OVCAR-4 6.5 µM | PC-3 5.35 µM | SK-MEL-2 3.32 µM | SK-MEL-5 3.2 µM | SK-OV-3 12.5 µM | SN12C 11.3 µM | SNB-19 9.23 µM | SR 2.58 µM
